Test results from publication PMC9865629, “Rhanteriol, a New Rhanterium suaveolens Desf. Lignan with Pharmacological Potential as an Inhibitor of Enzymes Involved in Neurodegeneration and Type 2 Diabetes” (Plants, 2023).

Tests used:
α-glucosidase = α-glucosidase inhibition assay; type: biochemical; details: pure compound and standard
Experimental: Results are expressed as IC50 values (mg/mL for extracts and µM for pure compound), using GraphPad Prism 8 Software (San Diego, CA, USA). The assay was carried out in triplicate.

[1] = system: HaCaT epidermal keratinocytes; test: Cell viability MTT assay, HaCaT; type: cell-based; details: 100, 50, 25 µM for 48 h, data not shown
Experimental: Epidermal keratinocytes (HaCaT) were cultured in Dulbecco’s Modified Eagle’s Medium containing 10% fetal bovine serum, supplemented with 100 U/mL each of penicillin and streptomycin, and 2 mM/L glutamine, and grown at 37 °C under 5% CO2 air humidified atmosphere. Human leukemia cell lines (Jurkat) were maintained in RPMI medium supplemented with 10% FBS, 2 mM l-glutamine, 100 U/mL penicillin, and […] at 37 °C, in 5% CO2 [26].
(§1) Cell viability was evaluated using a colorimetric assay based on an MTT ([3-(4,5-dimethylthiazol-2-yl)-2,5-diphenyltetrazolium bromide]) assay, in order to compare the effect of potentially cytotoxic substances with a control condition. Briefly, cells were plated in 96-well tissue culture plates (3.5 × 10^3 cells/well) and after 24 h, the medium was replaced with a fresh one alone or one containing serial dilutions of compound 1 (100, 50, 25 µM), and incubation was performed for 48 h. Staurosporin 0.2 µM was used as a positive control. […] The optical density (OD) of each well was measured with a microplate spectrophotometer (Multiskan Spectrum Thermo Electron Corporation reader, Thermo Fisher Scientific, Waltham, Massachusetts, United States) equipped with a 620 nm filter. Cell vitality was calculated as % vitality = 100 × (OD treated/OD DMSO).

[2] = system: HeLa (cervical carcinoma) cells; test: Cell viability MTT assay, HeLa; type: cell-based; details: 100, 50, 25 µM for 48 h, data not shown
Experimental: (§2) HeLa (cervical carcinoma), Jurkat (T-cell leukemia), and U937 (monocytic leukemia) cell lines were obtained from the American Type Cell Culture (ATCC) (Rockville, MD, USA). Cells were maintained in DMEM (HeLa) or RPMI 1640 (Jurkat and U937), supplemented with 10% FBS, 100 mg/L streptomycin and penicillin 100 IU/mL at 37 °C in a humidified atmosphere of 5% CO2. To ensure logarithmic growth, cells were subcultured every two days. Stock solutions (50 mM) of purified compound in DMSO were stored in the dark at 4 °C. Appropriate dilutions were prepared in a culture medium immediately prior to use.
as §1, with “h.” for “h. Staurosporin 0.2 µM was used as a positive control.”

[3] = system: U937 (monocytic leukemia) cells; test: Cell viability MTT assay, U937; type: cell-based; details: 100, 50, 25 µM for 48 h, data not shown
Experimental: as §2
as §1, with “h.” for “h. Staurosporin 0.2 µM was used as a positive control.”

[4] = system: Jurkat (T-cell leukemia) cells; test: Cell viability MTT assay, Jurkat; type: cell-based; details: 100, 50, 25 µM for 48 h, data not shown
Experimental: as §2, with “use. […]” for “use.”
Cell viability was evaluated using a colorimetric assay based on an MTT ([3-(4,5-dimethylthiazol-2-yl)-2,5-diphenyltetrazolium bromide]) assay, in order to compare the effect of potentially cytotoxic substances with a control condition. […] The optical density (OD) of each well was measured with a microplate spectrophotometer (Multiskan Spectrum Thermo Electron Corporation reader, Thermo Fisher Scientific, Waltham, Massachusetts, United States) equipped with a 620 nm filter. Cell vitality was calculated as % vitality = 100 × (OD treated/OD DMSO).

[5] = biological target: butyrylcholinesterase (BuChE) (Homo sapiens, UniProt P06276); test: biochemical
Experimental: (§3) The inhibition of AChE and BuChE was evaluated using Ellman’s method, as previously reported. Briefly, extracts and pure compound were incubated with AChE or BuChE (25 µL, 0.05 U/mL), DTNB (125 µL, 3 mM) and buffer B (25 µL, 50 mM Tris–HCl, pH 8 containing 0.1% BSA) for 10 min at 37 °C. Then, the substrate of the reaction, the acetylthiocholine iodide or butyrylthiocholine chloride (25 µL, 5 mM), was added, and the absorbance was measured at 405 nm, after 10 min. Galanthamine was used as the standard in both assays. Results are expressed as IC50 values (mg/mL for extracts and µM for pure compound), using GraphPad Prism 8 Software (San Diego, CA, USA). The test was carried out in triplicate.

[6] = biological target: acetylcholinesterase (AChE) (Homo sapiens, UniProt P22303); test: biochemical; details: read-out: % of inhibition against AChE
Experimental: as §3

BuChE = details: read-out: IC50 (BuChE, by context); lignans from Citharexylum spinosum L.; cited from earlier work

butyrylcholinesterase (BuChE), sequence (P06276 29-602): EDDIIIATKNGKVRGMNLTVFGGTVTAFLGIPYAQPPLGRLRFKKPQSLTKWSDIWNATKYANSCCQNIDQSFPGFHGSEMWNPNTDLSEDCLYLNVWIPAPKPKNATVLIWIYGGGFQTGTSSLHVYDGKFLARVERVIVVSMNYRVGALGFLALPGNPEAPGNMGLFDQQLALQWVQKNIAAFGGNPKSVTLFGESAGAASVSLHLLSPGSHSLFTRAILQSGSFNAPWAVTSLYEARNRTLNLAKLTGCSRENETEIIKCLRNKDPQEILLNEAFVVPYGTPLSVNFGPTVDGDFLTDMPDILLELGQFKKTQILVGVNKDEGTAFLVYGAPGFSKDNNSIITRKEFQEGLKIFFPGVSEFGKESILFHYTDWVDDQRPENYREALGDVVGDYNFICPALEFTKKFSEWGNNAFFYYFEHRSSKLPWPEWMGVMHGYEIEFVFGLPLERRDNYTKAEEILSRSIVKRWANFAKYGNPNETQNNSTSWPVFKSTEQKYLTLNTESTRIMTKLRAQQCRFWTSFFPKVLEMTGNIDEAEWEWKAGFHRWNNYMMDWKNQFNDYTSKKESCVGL
acetylcholinesterase (AChE), sequence (P22303 32-614, species assumed): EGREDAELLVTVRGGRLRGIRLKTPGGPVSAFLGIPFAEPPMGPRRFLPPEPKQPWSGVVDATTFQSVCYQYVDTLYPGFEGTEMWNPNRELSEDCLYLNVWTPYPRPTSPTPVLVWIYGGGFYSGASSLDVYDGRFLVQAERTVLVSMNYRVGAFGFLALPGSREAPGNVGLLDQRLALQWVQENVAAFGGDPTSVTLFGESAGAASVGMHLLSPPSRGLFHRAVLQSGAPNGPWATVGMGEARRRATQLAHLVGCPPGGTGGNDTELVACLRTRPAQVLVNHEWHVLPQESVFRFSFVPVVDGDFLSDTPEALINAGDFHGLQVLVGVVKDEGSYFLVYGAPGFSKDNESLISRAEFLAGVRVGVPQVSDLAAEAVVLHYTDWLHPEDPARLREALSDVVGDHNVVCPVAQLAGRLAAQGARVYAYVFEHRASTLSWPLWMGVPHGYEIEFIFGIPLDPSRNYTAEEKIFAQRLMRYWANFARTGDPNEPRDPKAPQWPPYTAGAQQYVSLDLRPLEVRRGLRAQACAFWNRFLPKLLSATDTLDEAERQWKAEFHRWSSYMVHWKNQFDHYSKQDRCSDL

## COc1cc(C[C@@H]2CO[C@@H](c3ccc(O)c(OC)c3)[C@@H]2COC(=O)c2ccccc2)ccc1O [Compound 1, 4-benzoic acid 4-(4-hydroxy-3-meethoxybenzyl)-2-(4-hydroxy-3-methoxyphenyl) tetrahydrofuran-3-ylmethyl ester]
α-glucosidase
  IC50: 26.8 ± 3.29 µM
[1]
  cytotoxicity (MTT): not toxic
[2]
  cytotoxicity (MTT): not toxic
[3]
  cytotoxicity (MTT): not toxic
[4]
  cytotoxicity (MTT): not toxic
[5]
  IC50: 10.41 ± 0.03 µM
[6]
  inhibition at 100 µM: 21%

## plucheoside D1
BuChE
  IC50: 98.1 ± 2.72 µM

## plucheoside D2
BuChE
  IC50: 71.3 ± 2.82 µM
